Where two headings read alike, the source gives them in different places. Starred links: 1 amine or outer side, 2 acyl side, 3 side chain; linkers in the order of their positions; H or OH if unused. Non-standard residues stand in square brackets, D forms with d. Residues, ends and D or L forms follow the SMILES beside them. ξ: configuration not given here. *: point of attachment. ξ(3-Amino-2-oxopentanoyl) = CCC(N[*:1])C(=O)C(=O)[*:2]; X23 = CCC(N*)C(=O)c1ncc(-c2c(Cl)cccc2Cl)o1; Bip = N[CH](Cc1ccc(-c2ccccc2)cc1)C(=O)O; Acetyl(3-pyridyl) = O=C(Cc1cccnc1)*; Pyrazinecarbonyl = O=C(c1cnccn1)*; X41 = CCC(N*)C(=O)c1nc2ccccc2o1; 3Pal = N[CH](Cc1cccnc1)C(=O)O; NH(4-picolyl) = c1cc(CN*)ccn1; Hyp = O=C(O)[CH]1C[CH](O)CN1; NHPhenethyl = c1ccc(CCN*)cc1; Nicotinoyl = O=C(c1cccnc1)*; X44 = O=C(c1ccc2cnccc2n1)*; X12 = CCC(N*)C(=O)c1nccs1; Morpholide = C1CN(*)CCO1; Abu = CC[CH](N)C(=O)O; X8 = O=C(CCN1CCCCC1)*; NHBn = c1ccc(CN*)cc1; Glycolyl = O=C(CO)*; X13 = COc1ccccc1CN*; X16 = C1COC(CN*)C1; Bn = c1ccc(C*)cc1; X37 = COCC(C)N*; NHPr = CCCN*
Target: T1, HCV NS3 protease (Hepatitis C virus genotype 1a, UniProt P27958)
T1 construct: more particularly HCV NS3 proteases
Assay: Enzyme inhibition of HCV NS3 serine protease (cleavage of peptide substrate / EDVV AbuC-p-nitroanilide, with or without NS4A)
Assay type: biochemical
Method: Cleavage reactions were quenched by the addition of an equal volume of a mixture of 10% TFA:acetonitrile (1:1) and activity was assessed on a reversed phase HPLC column (Rainin C18 Microsorb-MV, […], 4.6×250 mm; 0-50% acetonitrile, 0.1% TFA@ 3.33% min) using a Hewlett Packard 1050 instrument with auto-injection and diode array detection at 210 nm and 280 nm (where appropriate). Peptide elution fragments were collected and identified by mass spectrometry and N-terminal sequence analysis. Fragment identity and concentration was further verified by authentic, synthesized products. Initial rates of cleavage were determined at <20% substrate conversion and catalytic parameters were determined assuming Michaelis-Menten kinetics using the MultiFit program (Day Computing, Cambridge, Mass.).
Spectrophotometric assays were run in a 96-well microtiter plate at 30 C, using a SpectraMax 250 reader (Molecular Devices, Sunnyvale, Calif.) with kinetic capability. Cleavage of EDVV AbuC-p-nitroanilide (5A-pNA) substrate was performed with or without […] in the same buffer used for HPLC assays at 30 C, and pNA release was monitored at 405 nm. The extinction-coefficient of p-nitroaniline is independent of pH at values of 5.5. and above [Tuppy, H., et al., Hoppe-Seyler's Z. Physiol. Chem., 329, pp. 278-288 (1962)]; Raybuck and Luong, unpublished observations).
Kinetic constants for the rapid equilibrium ordered bisubstrate reaction were determined from rate vs [4A], [EDVV AbuC-pNA] data by non-linear least squares fitting to equation 1 [Morrison, J. F. Biochim. Biophys. Acta, 185, pp. 269-286 (1969)] as described in the text. Kii and Kis values for peptidyl inhibitors were determined from rate vs [inhibitor], [substrate] data and fitting to the equation for mixed inhibition: rate=Vmax[S]/{Km(1+[I]/Kis)+[S](1+[I]/Kii)} The commercial program KinetAsyst (StateCollege, Pa.) was used for both procedures. Ki values were calculated from rate vs [inhibitor] plots by a nonlinear least squares fit of the data to the equation of Morrison for tight binding competitive inhibition [Morrison, J. F. Biochim. Biophys. Acta, 185, pp. 269-286 (1969)]. The KineTic program (BioKin Ltd) was used for this procedure.
Ki values are expressed in μM. Category “A” indicates <1 μM inhibition; category “B” indicates 1-100 μM inhibition; category “C” indicates >100 μM.

[1] = Enzyme inhibition data, Ki from rate vs [inhibitor] plots, Morrison tight binding competitive inhibition fit, 30 C, pH 7.8, read-out: Ki

T1 sequence (P27958 1027-1208): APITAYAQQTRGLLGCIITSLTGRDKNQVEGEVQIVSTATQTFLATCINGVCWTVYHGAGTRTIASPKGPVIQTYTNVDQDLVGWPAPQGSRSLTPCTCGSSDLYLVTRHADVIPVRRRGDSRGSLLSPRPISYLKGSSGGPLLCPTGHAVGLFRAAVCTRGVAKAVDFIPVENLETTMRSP

## CCOC(=O)C(F)(F)C(=O)C(CC)NC(=O)C1CC(OCc2ccccc2)CN1C(=O)C(NC(=O)C(NC(=O)c1cnccn1)C(C)C)C(C)C (centres unmarked) [Compound 76]
[1]
  Ki: > 100 µM

## CCOP(=O)(OCC)C(CC)NC(=O)C1CC(OCc2ccccc2)CN1C(=O)C(NC(=O)C(NC(=O)c1cnccn1)C(C)C)C(C)C (centres unmarked) [Compound 77]
[1]
  Ki: > 100 µM

## CCC(NC(=O)C1CC(OCc2ccccc2)CN1C(=O)C(NC(=O)C(NC(=O)c1cnccn1)C(C)C)C(C)C)C(=O)C(=O)CCc1ccccc1 (centres unmarked) [Compound 78]
[1]
  Ki: 1 to 100 µM

## CCC(NC(=O)C1CC(OCc2ccccc2)CN1C(=O)C(NC(=O)C(NC(=O)c1cnccn1)C(C)C)C(C)C)C(=O)C(=O)NCCc1ccccc1 (centres unmarked) [Compound 79]
[1]
  Ki: 1 to 100 µM

## CCC(C=O)NC(=O)C1CC(OCc2ccccc2)CN1C(=O)C(NC(=O)C(NC(C)=O)C(C)C)C(C)C (centres unmarked) [Compound 81] (Ac-VV[Hyp](Bn)[Abu]-aldehyde; configuration not given here)
[1]
  Ki: 1 to 100 µM

## CCC(C=O)NC(=O)C1CC(OCc2ccccc2)CN1C(=O)C(NC(=O)C(NC(=O)CO)C(C)C)C(C)C (centres unmarked) [Compound 82] (Glycolyl-VV[Hyp](Bn)[Abu]-aldehyde; configuration not given here)
[1]
  Ki: 1 to 100 µM

## CCC(C=O)NC(=O)C(CC(C)C)NC(=O)C(NC(=O)C(NC(=O)c1ccc2cnccc2n1)C(C)C)C(C)C (centres unmarked) [Compound 89] (X44-VVL[Abu]-aldehyde; configuration not given here)
[1]
  Ki: 1 to 100 µM

## CCC(C=O)NC(=O)C(CC(C)C)NC(=O)C(NC(=O)C(NC(=O)c1cccnc1)C(C)C)C(C)C (centres unmarked) [Compound 94] (Nicotinoyl-VVL[Abu]-aldehyde; configuration not given here)
[1]
  Ki: 1 to 100 µM

## CCC(C=O)NC(=O)C(CC(C)C)NC(=O)C(NC(=O)C(NC(=O)Cc1cccnc1)C(C)C)C(C)C (centres unmarked) [Compound 95] ({Acetyl(3-pyridyl)}-VVL[Abu]-aldehyde; configuration not given here)
[1]
  Ki: 1 to 100 µM

## CCC(C=O)NC(=O)C(CC(C)C)NC(=O)C(NC(=O)C(NC(=O)CCN1CCCCC1)C(C)C)C(C)C (centres unmarked) [Compound 97] (X8-VVL[Abu]-aldehyde; configuration not given here)
[1]
  Ki: 1 to 100 µM

## CCC(NC(=O)C(CC(C)C)NC(=O)C(NC(=O)C(NC(=O)C(CC(=O)O)NC(=O)C(CCC(=O)O)NC(C)=O)C(C)C)C(C)C)C(=O)C(=O)O (centres unmarked) [Compound 101] (Ac-EDVVL-{ξ(3-Amino-2-oxopentanoyl)}; configuration not given here)
[1]
  Ki: < 1 µM

## CCC(NC(=O)C(CC(C)C)NC(=O)C(NC(=O)C(NC(=O)C(CC(=O)O)NC(=O)C(CCC(=O)O)NC(C)=O)C(C)C)C(C)C)C(=O)C(=O)NCc1ccccc1 (centres unmarked) [Compound 102] (Ac-EDVVL[ξ(3-Amino-2-oxopentanoyl)]-NHBn; configuration not given here)
[1]
  Ki: < 1 µM

## CCC(NC(=O)C(CC(C)C)NC(=O)C(NC(=O)C(NC(=O)C(CC(=O)O)NC(=O)C(CCC(=O)O)NC(C)=O)C(C)C)C(C)C)C(=O)C(=O)NCc1ccccc1OC (centres unmarked) [Compound 103] (Ac-EDVVL[ξ(3-Amino-2-oxopentanoyl)]-X13; configuration not given here)
[1]
  Ki: < 1 µM

## CCC(NC(=O)C(CC(C)C)NC(=O)C(NC(=O)C(NC(=O)C(CC(=O)O)NC(=O)C(CCC(=O)O)NC(C)=O)C(C)C)C(C)C)C(=O)C(=O)NCCc1ccccc1 (centres unmarked) [Compound 104] (Ac-EDVVL[ξ(3-Amino-2-oxopentanoyl)]-NHPhenethyl; configuration not given here)
[1]
  Ki: < 1 µM

## CCCNC(=O)C(=O)C(CC)NC(=O)C(CC(C)C)NC(=O)C(NC(=O)C(NC(=O)C(CC(=O)O)NC(=O)C(CCC(=O)O)NC(C)=O)C(C)C)C(C)C (centres unmarked) [Compound 105] (Ac-EDVVL[ξ(3-Amino-2-oxopentanoyl)]-NHPr; configuration not given here)
[1]
  Ki: < 1 µM

## CCC(NC(=O)C(CC(C)C)NC(=O)C(NC(=O)C(NC(=O)C(CC(=O)O)NC(=O)C(CCC(=O)O)NC(C)=O)C(C)C)C(C)C)C(=O)C(=O)NC(C)COC (centres unmarked) [Compound 106] (Ac-EDVVL[ξ(3-Amino-2-oxopentanoyl)]-X37; configuration not given here)
[1]
  Ki: < 1 µM

## CCC(NC(=O)C(CC(C)C)NC(=O)C(NC(=O)C(NC(=O)C(CC(=O)O)NC(=O)C(CCC(=O)O)NC(C)=O)C(C)C)C(C)C)C(=O)C(=O)NCc1ccncc1 (centres unmarked) [Compound 107] (Ac-EDVVL[ξ(3-Amino-2-oxopentanoyl)]-{NH(4-picolyl)}; configuration not given here)
[1]
  Ki: < 1 µM

## CCC(NC(=O)C(CC(C)C)NC(=O)C(NC(=O)C(NC(=O)C(CC(=O)O)NC(=O)C(CCC(=O)O)NC(C)=O)C(C)C)C(C)C)C(=O)C(=O)NCC1CCCO1 (centres unmarked) [Compound 108] (Ac-EDVVL[ξ(3-Amino-2-oxopentanoyl)]-X16; configuration not given here)
[1]
  Ki: < 1 µM

## CCC(NC(=O)C(CC(C)C)NC(=O)C(NC(=O)C(NC(=O)C(CC(=O)O)NC(=O)C(CCC(=O)O)NC(C)=O)C(C)C)C(C)C)C(=O)C(=O)N1CCOCC1 (centres unmarked) [Compound 109] (Ac-EDVVL[ξ(3-Amino-2-oxopentanoyl)]-Morpholide; configuration not given here)
[1]
  Ki: 1 to 100 µM

## CCC(NC(=O)C(CC(C)C)NC(=O)C(NC(=O)C(NC(=O)c1cnccn1)C(C)C)C(C)C)C(=O)C(=O)NCc1ccccc1 (centres unmarked) [Compound 112]
[1]
  Ki: 1 to 100 µM

## CCC(NC(=O)C(CC(C)C)NC(=O)C(NC(=O)C(NC(=O)c1cnccn1)C(C)C)C(C)C)C(=O)C(=O)NCCc1ccc(OCc2ccccc2)c(OCc2ccccc2)c1 (centres unmarked) [Compound 113]
[1]
  Ki: 1 to 100 µM

## CCC(NC(=O)C(CC(C)C)NC(=O)C(NC(=O)C(NC(=O)c1cnccn1)C(C)C)C(C)C)C(=O)C(=O)NCc1ccccc1OC (centres unmarked) [Compound 114]
[1]
  Ki: > 100 µM

## CCC(NC(=O)C(CC(C)C)NC(=O)C(NC(=O)C(NC(=O)c1cnccn1)C(C)C)C(C)C)C(=O)C(=O)NCCc1ccccc1 (centres unmarked) [Compound 115]
[1]
  Ki: 1 to 100 µM

## CCC(NC(=O)C(CC(C)C)NC(=O)C(NC(=O)C(NC(=O)c1cnccn1)C(C)C)C(C)C)C(=O)C(=O)N[C@H](C)c1ccccc1 (some centres unmarked) [Compound 116]
[1]
  Ki: 1 to 100 µM

## CCC(NC(=O)C(CC(C)C)NC(=O)C(NC(=O)C(NC(=O)c1cnccn1)C(C)C)C(C)C)C(=O)C(=O)N[C@@H](C)c1ccccc1 (some centres unmarked) [Compound 117]
[1]
  Ki: 1 to 100 µM

## CCC(NC(=O)C(CC(C)C)NC(=O)C(NC(=O)C(NC(=O)c1cnccn1)C(C)C)C(C)C)C(=O)C(=O)Nc1ccccc1 (centres unmarked) [Compound 119]
[1]
  Ki: > 100 µM

## CCC(NC(=O)C(CC(C)C)NC(=O)C(NC(=O)C(NC(=O)c1cnccn1)C(C)C)C(C)C)C(=O)C(=O)N[C@H](CC)c1ccccc1 (some centres unmarked) [Compound 120]
  Ki: 1 to 100 µM

## CCC(NC(=O)C(CC(C)C)NC(=O)C(NC(=O)C(NC(=O)c1cnccn1)C(C)C)C(C)C)C(=O)C(=O)N[C@@H](CC)c1ccccc1 (some centres unmarked) [Compound 121]
  Ki: > 100 µM

## CCC(NC(=O)C(CC(C)C)NC(=O)C(NC(=O)C(NC(=O)c1cnccn1)C(C)C)C(C)C)C(=O)C(=O)N(CC)CC (centres unmarked) [Compound 122]
[1]
  Ki: > 100 µM

## CCC(NC(=O)C(CC(C)C)NC(=O)C(NC(=O)C(NC(=O)c1cnccn1)C(C)C)C(C)C)C(=O)C(=O)NCC(C)OC (centres unmarked) [Compound 123]
[1]
  Ki: 1 to 100 µM

## CCC(NC(=O)C(CC(C)C)NC(=O)C(NC(=O)C(NC(=O)C(CC(=O)O)NC(=O)C(N)CCC(=O)O)C(C)C)C(C)C)C(=O)c1nc2ccccc2o1 (centres unmarked) [Compound 124] (H-EDVVL-X41; configuration not given here)
[1]
  Ki: 1 to 100 µM

## CCC(NC(=O)C(CC(C)C)NC(=O)C(NC(=O)C(NC(=O)C(CC(=O)O)NC(=O)C(N)CCC(=O)O)C(C)C)C(C)C)C(=O)c1nccs1 (centres unmarked) [Compound 125] (H-EDVVL-X12; configuration not given here)
[1]
  Ki: 1 to 100 µM

## CCC(NC(=O)C(CC(C)C)NC(=O)C(NC(=O)C(NC(=O)C(CC(=O)O)NC(=O)C(N)CCC(=O)O)C(C)C)C(C)C)C(=O)c1ncc(-c2c(Cl)cccc2Cl)o1 (centres unmarked) [Compound 126] (H-EDVVL-X23; configuration not given here)
[1]
  Ki: > 100 µM

## CCC(C=O)NC(=O)C1CC(OCc2ccccc2)CN1C(=O)C(NC(=O)C(Cc1cccnc1)NC(=O)c1cnccn1)C(C)C (centres unmarked) [Compound 127] (Pyrazinecarbonyl-[3Pal]V[Hyp](Bn)[Abu]-aldehyde; configuration not given here)
[1]
  Ki: > 100 µM

## CCC(C=O)NC(=O)C1CC(OCc2ccccc2)CN1C(=O)C(NC(=O)C(Cc1ccc(-c2ccccc2)cc1)NC(=O)c1cnccn1)C(C)C (centres unmarked) [Compound 130] (Pyrazinecarbonyl-[Bip]V[Hyp](Bn)[Abu]-aldehyde; configuration not given here)
[1]
  Ki: > 100 µM

Source: patent publication US7388017B2, “Inhibitors of serine proteases, particularly hepatitis C virus NS3 protease” (Vertex Pharmaceuticals Incorporated, priority 1996, dated 2008)
